Experimental data from PubChem BioAssay (NCI).
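GI50 marks 50% less growth. TGI is the concentration that stops growth completely.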

Columns and labels:
Experiment in all cases: DTP human tumour cell line panel, 384-well format; in the data active = GI50 below about 0.43 µM; inactive = the rest
786-0 renal = system: 786-0 renal
EKVX NSCLC = system: EKVX NSCLC
HT29 colon = system: HT29 colon
HOP-92 NSCLC = system: HOP-92 NSCLC
SK-OV-3 ovarian = system: SK-OV-3 ovarian
NCI-H226 lung = system: NCI-H226 lung
HL-60(TB) leukemia = system: HL-60(TB) leukemia
COLO 205 colon = system: COLO 205 colon
SF-268 CNS = system: SF-268 CNS
MDA-MB-231 breast = system: MDA-MB-231 breast
CCRF-CEM leukemia = system: CCRF-CEM leukemia
HCT-116 colon = system: HCT-116 colon
MOLT-4 leukemia = system: MOLT-4 leukemia
T-47D breast = system: T-47D breast
NCI-H460 NSCLC = system: NCI-H460 NSCLC
ACHN renal = system: ACHN renal
NCI-H522 lung = system: NCI-H522 lung
HCT-15 colon = system: HCT-15 colon
A498 renal = system: A498 renal
SNB-19 CNS = system: SNB-19 CNS
NCI/ADR-RES ovarian = system: NCI/ADR-RES ovarian
SN12C renal = system: SN12C renal
U251 glioblastoma = system: U251 glioblastoma
LOX IMVI melanoma = system: LOX IMVI melanoma
SK-MEL-2 melanoma = system: SK-MEL-2 melanoma
DU-145 prostate = system: DU-145 prostate
MCF7 breast = system: MCF7 breast
NCI-H23 lung = system: NCI-H23 lung
RXF 393 renal = system: RXF 393 renal
CAKI-1 renal = system: CAKI-1 renal
UACC-62 melanoma = system: UACC-62 melanoma
A549 NSCLC = system: A549 NSCLC
OVCAR-5 ovarian = system: OVCAR-5 ovarian
SK-MEL-28 melanoma = system: SK-MEL-28 melanoma
IGROV1 ovarian = system: IGROV1 ovarian
KM12 colon = system: KM12 colon
BT-549 breast = system: BT-549 breast
HOP-62 NSCLC = system: HOP-62 NSCLC
K-562 leukemia = system: K-562 leukemia
MALME-3M melanoma = system: MALME-3M melanoma
SF-539 CNS = system: SF-539 CNS
SR leukemia = system: SR leukemia
OVCAR-4 ovarian = system: OVCAR-4 ovarian
TK-10 renal = system: TK-10 renal
MDA-MB-468 breast = system: MDA-MB-468 breast
UO-31 renal = system: UO-31 renal
HCC-2998 colon = system: HCC-2998 colon
NCI-H322M lung = system: NCI-H322M lung
SNB-75 CNS = system: SNB-75 CNS
HS 578T breast = system: HS 578T breast
SF-295 CNS = system: SF-295 CNS
UACC-257 melanoma = system: UACC-257 melanoma
SK-MEL-5 melanoma = system: SK-MEL-5 melanoma
PC-3 prostate = system: PC-3 prostate
M14 melanoma = system: M14 melanoma
SW-620 colon = system: SW-620 colon
OVCAR-8 ovarian = system: OVCAR-8 ovarian
RPMI-8226 leukemia = system: RPMI-8226 leukemia
MDA-MB-435 melanoma = system: MDA-MB-435 melanoma
OVCAR-3 ovarian = system: OVCAR-3 ovarian

Cc1cncc2cccc(S(=O)(=O)N3CCCNC[C@@H]3C)c12
43.8 µM: TGI (MDA-MB-231 breast)
68.2 µM: TGI (NCI-H226 lung)
10 µM: TGI (SNB-75 CNS)
24.7 µM: TGI (CAKI-1 renal)
62.4 µM: TGI (HOP-62 NSCLC)
50.2 µM: TGI (UACC-62 melanoma)
1.65 µM: TGI (MOLT-4 leukemia)
0.389 µM: TGI (SR leukemia)
24 µM: TGI (UO-31 renal)
11 µM: TGI (COLO 205 colon)
22.6 µM: TGI (RXF 393 renal)
87.3 µM: TGI (SF-268 CNS)
67.8 µM: TGI (NCI-H460 NSCLC)
active: GI50 (SR leukemia) 0.227 µM
7.48 µM: TGI (BT-549 breast)
2.28 µM: TGI (MDA-MB-468 breast)
52 µM: TGI (NCI-H23 lung)
inactive: GI50 ([…]-0 renal) 13.6 µM | GI50 (EKVX NSCLC) 16.3 µM | GI50 (HT29 colon) 4.96 µM | GI50 (HOP-92 NSCLC) 10.3 µM | GI50 (SK-OV-3 ovarian) 18.5 µM | GI50 (NCI-H226 lung) 13.2 µM | GI50 (HL-60(TB) leukemia) 1.49 µM | GI50 (COLO 205 colon) 3.03 µM | GI50 (SF-268 CNS) 11.7 µM | GI50 (MDA-MB-231 breast) 14.9 µM | GI50 (CCRF-CEM leukemia) 1.25 µM | GI50 (HCT-116 colon) 7.52 µM | GI50 (MOLT-4 leukemia) 0.492 µM | GI50 (T-47D breast) > 100 µM | GI50 (NCI-H460 NSCLC) 2.54 µM | GI50 (ACHN renal) 25.9 µM | GI50 (NCI-H522 lung) 1.71 µM | GI50 (HCT-15 colon) 11.2 µM | GI50 (A498 renal) > 100 µM | GI50 (SNB-19 CNS) 8.41 µM | GI50 (NCI/ADR-RES ovarian) 3.63 µM | GI50 (SN12C renal) 15.1 µM | GI50 (U251 glioblastoma) 5.17 µM | GI50 (LOX IMVI melanoma) 12.1 µM | GI50 (SK-MEL-2 melanoma) 7.56 µM | GI50 (DU-145 prostate) 5.94 µM | GI50 (MCF7 breast) 28 µM | GI50 (NCI-H23 lung) 10.8 µM | GI50 (RXF 393 renal) 5.06 µM | GI50 (CAKI-1 renal) 7.51 µM | GI50 (UACC-62 melanoma) 2.04 µM | GI50 (A549 NSCLC) 11.2 µM | GI50 (OVCAR-5 ovarian) 25.5 µM | GI50 (SK-MEL-28 melanoma) > 100 µM | GI50 (IGROV1 ovarian) 7.65 µM | GI50 (KM12 colon) 16.4 µM | GI50 (BT-549 breast) 1.8 µM | GI50 (HOP-62 NSCLC) 11.3 µM | GI50 (K-562 leukemia) 0.537 µM | GI50 (MALME-3M melanoma) > 100 µM | GI50 (SF-539 CNS) 4.32 µM | GI50 (OVCAR-4 ovarian) > 100 µM | GI50 (TK-10 renal) 10.1 µM | GI50 (MDA-MB-468 breast) 1.02 µM | GI50 (UO-31 renal) 10.6 µM | GI50 (HCC-2998 colon) 42.4 µM | GI50 (NCI-H322M lung) 87.7 µM | GI50 (SNB-75 CNS) 1.66 µM | GI50 (HS 578T breast) 1.89 µM | GI50 (SF-295 CNS) 4.35 µM | GI50 (UACC-257 melanoma) > 100 µM | GI50 (SK-MEL-5 melanoma) 5.64 µM | GI50 (PC-3 prostate) 8.81 µM | GI50 (M14 melanoma) > 100 µM | GI50 (SW-620 colon) 2.74 µM
58.1 µM: TGI (IGROV1 ovarian)
42.4 µM: TGI (SK-MEL-2 melanoma)
> 100 µM: TGI (786-0 renal) | TGI (EKVX NSCLC) | TGI (HT29 colon) | TGI (SK-OV-3 ovarian) | TGI (T-47D breast) | TGI (ACHN renal) | TGI (HCT-15 colon) | TGI (A498 renal) | TGI (SNB-19 CNS) | TGI (NCI/ADR-RES ovarian) | TGI (U251 glioblastoma) | TGI (DU-145 prostate) | TGI (MCF7 breast) | TGI (OVCAR-5 ovarian) | TGI (SK-MEL-28 melanoma) | TGI (K-562 leukemia) | TGI (MALME-3M melanoma) | TGI (OVCAR-4 ovarian) | TGI (HCC-2998 colon) | TGI (NCI-H322M lung) | TGI (SF-295 CNS) | TGI (UACC-257 melanoma) | TGI (SK-MEL-5 melanoma) | TGI (PC-3 prostate) | TGI (M14 melanoma)
37.3 µM: TGI (TK-10 renal)
10.7 µM: TGI (SW-620 colon)
81.2 µM: TGI (KM12 colon)
4.55 µM: TGI (HS 578T breast)
2.57 µM: TGI (CCRF-CEM leukemia)
5.04 µM: TGI (NCI-H522 lung)
48 µM: TGI (HCT-116 colon)
49.4 µM: TGI (A549 NSCLC)
61.1 µM: TGI (SN12C renal)
20.1 µM: TGI (SF-539 CNS)
36.1 µM: TGI (HOP-92 NSCLC)
31.8 µM: TGI (LOX IMVI melanoma)
3.09 µM: TGI (HL-60(TB) leukemia)

CCc1cc(Nc2nccc(-c3c(-c4ccc(OC)c(C(=O)Nc5c(F)cccc5F)c4)nc4ccccn34)n2)c(OC)cc1N1CCC(N2CCN(S(C)(=O)=O)CC2)CC1
inactive: GI50 ([…]-0 renal) > 100 µM | GI50 (HT29 colon) > 100 µM | GI50 (OVCAR-8 ovarian) 1.79 µM | GI50 (HOP-92 NSCLC) > 100 µM | GI50 (SK-OV-3 ovarian) > 100 µM | GI50 (NCI-H226 lung) > 100 µM | GI50 (HL-60(TB) leukemia) > 100 µM | GI50 (COLO 205 colon) > 100 µM | GI50 (SF-268 CNS) > 100 µM | GI50 (MDA-MB-231 breast) 18.6 µM | GI50 (CCRF-CEM leukemia) > 100 µM | GI50 (HCT-116 colon) > 100 µM | GI50 (MOLT-4 leukemia) 0.645 µM | GI50 (T-47D breast) 0.587 µM | GI50 (NCI-H460 NSCLC) > 100 µM | GI50 (ACHN renal) > 100 µM | GI50 (NCI-H522 lung) > 100 µM | GI50 (HCT-15 colon) > 100 µM | GI50 (A498 renal) > 100 µM | GI50 (RPMI-8226 leukemia) 0.908 µM | GI50 (SNB-19 CNS) > 100 µM | GI50 (NCI/ADR-RES ovarian) > 100 µM | GI50 (SN12C renal) > 100 µM | GI50 (U251 glioblastoma) > 100 µM | GI50 (MDA-MB-435 melanoma) > 100 µM | GI50 (LOX IMVI melanoma) > 100 µM | GI50 (OVCAR-3 ovarian) > 100 µM | GI50 (SK-MEL-2 melanoma) > 100 µM | GI50 (DU-145 prostate) > 100 µM | GI50 (MCF7 breast) > 100 µM | GI50 (NCI-H23 lung) > 100 µM | GI50 (RXF 393 renal) 0.75 µM | GI50 (CAKI-1 renal) > 100 µM | GI50 (UACC-62 melanoma) > 100 µM | GI50 (A549 NSCLC) > 100 µM | GI50 (OVCAR-5 ovarian) > 100 µM | GI50 (SK-MEL-28 melanoma) > 100 µM | GI50 (IGROV1 ovarian) > 100 µM | GI50 (KM12 colon) > 100 µM | GI50 (K-562 leukemia) > 100 µM | GI50 (MALME-3M melanoma) > 100 µM | GI50 (SF-539 CNS) > 100 µM | GI50 (SR leukemia) 0.932 µM | GI50 (OVCAR-4 ovarian) > 100 µM | GI50 (TK-10 renal) > 100 µM | GI50 (MDA-MB-468 breast) 0.935 µM | GI50 (UO-31 renal) > 100 µM | GI50 (HCC-2998 colon) > 100 µM | GI50 (NCI-H322M lung) > 100 µM | GI50 (SF-295 CNS) > 100 µM | GI50 (UACC-257 melanoma) > 100 µM | GI50 (SK-MEL-5 melanoma) > 100 µM | GI50 (PC-3 prostate) > 100 µM | GI50 (M14 melanoma) > 100 µM | GI50 (SW-620 colon) > 100 µM
> 100 µM: TGI (786-0 renal) | TGI (HT29 colon) | TGI (OVCAR-8 ovarian) | TGI (HOP-92 NSCLC) | TGI (SK-OV-3 ovarian) | TGI (NCI-H226 lung) | TGI (HL-60(TB) leukemia) | TGI (COLO 205 colon) | TGI (SF-268 CNS) | TGI (MDA-MB-231 breast) | TGI (CCRF-CEM leukemia) | TGI (HCT-116 colon) | TGI (MOLT-4 leukemia) | TGI (T-47D breast) | TGI (NCI-H460 NSCLC) | TGI (ACHN renal) | TGI (NCI-H522 lung) | TGI (HCT-15 colon) | TGI (A498 renal) | TGI (RPMI-8226 leukemia) | TGI (SNB-19 CNS) | TGI (NCI/ADR-RES ovarian) | TGI (SN12C renal) | TGI (U251 glioblastoma) | TGI (MDA-MB-435 melanoma) | TGI (LOX IMVI melanoma) | TGI (OVCAR-3 ovarian) | TGI (SK-MEL-2 melanoma) | TGI (DU-145 prostate) | TGI (MCF7 breast) | TGI (NCI-H23 lung) | TGI (RXF 393 renal) | TGI (CAKI-1 renal) | TGI (UACC-62 melanoma) | TGI (A549 NSCLC) | TGI (OVCAR-5 ovarian) | TGI (SK-MEL-28 melanoma) | TGI (IGROV1 ovarian) | TGI (KM12 colon) | TGI (K-562 leukemia) | TGI (MALME-3M melanoma) | TGI (SF-539 CNS) | TGI (SR leukemia) | TGI (OVCAR-4 ovarian) | TGI (TK-10 renal) | TGI (MDA-MB-468 breast) | TGI (UO-31 renal) | TGI (HCC-2998 colon) | TGI (NCI-H322M lung) | TGI (SF-295 CNS) | TGI (UACC-257 melanoma) | TGI (SK-MEL-5 melanoma) | TGI (PC-3 prostate) | TGI (M14 melanoma) | TGI (SW-620 colon)
